Source: patent publication US10508085B2, “Compounds and methods for IDO and TDO modulation, and indications therefor” (Plexxikon Inc., priority 2016, dated 2019)

Assays:
[1] = target: T1, Human Indoleamine 2,3-dioxygenase (IDO) (Homo sapiens, UniProt P14902); test: Human IDO enzymatic assay (kynurenine level); assay type: biochemical; details: 6 nM IDO, 10 μM L-Trp; geometric mean; read-out: IDO1 GMean: IC50 (μM) (Biochemical Assay)
T1 construct: His tag (N); made in house; host or cells: E. coli
How it was run: (§1)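 Kynurenine formed is measured after TCA quench and 50 °C hydrolysis, with % inhibition against full-reaction and no-enzyme controls (5% DMSO). IDO: 6 nM enzyme, 10 μM L-Trp, 5 μM methylene blue, 20 min; TDO: 1 nM, 350 μM L-Trp, 0.4 μM methylene blue, 70 min; both pH 6.5, room temp, E. coli-expressed His-tagged.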

[2] = target: T2, human TDO (TDO-expressing HEK293 cells) (Homo sapiens, UniProt P48775); test: Cell based kynurenine assay, TDO-expressing HEK293 cell clones; details: TDO-expressing HEK293 cells, 24 hours incubation; geometric mean; read-out: HEK293 TDO Kynurenine GMean IC50 (μM) (Cellular Assay)
T2 construct: expressed in transfected cells
How it was run: (§2)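 Steps: seed IDO1- or TDO-expressing HEK293 cells at 2.5×10^4 per well; add compound dilutions; incubate 24 h; transfer supernatant and determine kynurenine; derive IC50 via nonlinear regression of percent inhibition.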

[3] = target: T3, Human Tryptophan 2,3-dioxygenase (TDO) (Homo sapiens, UniProt P48775); test: Human TDO enzymatic assay (kynurenine level); assay type: biochemical; details: 1 nM TDO, 350 μM L-Trp; geometric mean; read-out: TDO GMean: IC50 (μM) (Biochemical Assay)
T3 construct: His tag (N); made in house; host or cells: E. coli
How it was run: as §1

[4] = target: T4, human IDO (IDO1-expressing HEK293 cells) (Homo sapiens, UniProt P14902); test: Cell based kynurenine assay, IDO1-expressing HEK293 cell clones; details: IDO1-expressing HEK293 cells, 24 hours incubation; geometric mean; read-out: HEK293 IDO1 Kynurenine GMean IC50 (μM) (Cellular Assay)
T4 construct: expressed in transfected cells
How it was run: as §2

Measured: IC50

T3 sequence (P48775 whole entry): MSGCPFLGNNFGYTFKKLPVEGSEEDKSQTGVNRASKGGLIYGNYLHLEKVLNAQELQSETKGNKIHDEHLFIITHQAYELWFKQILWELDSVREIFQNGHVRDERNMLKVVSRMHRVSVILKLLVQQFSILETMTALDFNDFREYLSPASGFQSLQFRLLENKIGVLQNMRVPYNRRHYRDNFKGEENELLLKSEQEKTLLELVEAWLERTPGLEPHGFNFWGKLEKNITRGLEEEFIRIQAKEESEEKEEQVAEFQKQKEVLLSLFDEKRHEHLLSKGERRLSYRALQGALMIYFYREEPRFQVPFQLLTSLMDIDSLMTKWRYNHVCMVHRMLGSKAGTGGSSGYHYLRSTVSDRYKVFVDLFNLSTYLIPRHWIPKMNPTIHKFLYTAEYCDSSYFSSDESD
T2 sequence (P48775 whole entry): as above
T4 sequence (P14902 whole entry): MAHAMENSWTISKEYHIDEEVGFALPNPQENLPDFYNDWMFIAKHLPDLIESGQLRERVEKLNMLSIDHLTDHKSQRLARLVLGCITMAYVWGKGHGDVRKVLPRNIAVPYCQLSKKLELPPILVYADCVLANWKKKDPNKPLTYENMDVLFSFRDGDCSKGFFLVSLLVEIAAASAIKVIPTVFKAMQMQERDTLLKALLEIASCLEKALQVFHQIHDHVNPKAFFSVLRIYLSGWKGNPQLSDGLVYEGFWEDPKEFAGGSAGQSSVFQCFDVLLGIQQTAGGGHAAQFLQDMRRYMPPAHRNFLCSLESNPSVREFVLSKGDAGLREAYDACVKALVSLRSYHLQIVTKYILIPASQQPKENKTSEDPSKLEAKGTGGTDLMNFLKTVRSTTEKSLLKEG
T1 sequence (P14902 whole entry): as above

COc1cc(C(O)C2(C)CCCCC2)c2[nH]ncc2c1 (stereo not drawn) [Compound P-0115, (5-methoxy-1H-indazol-7-yl)(1-methylcyclohexyl)methanol]
0.0001 to 10 µM: all assays above

OC(c1cc(Cl)cc2cn[nH]c12)C1CCC1 (stereo not drawn) [Compound P-0116, (5-chloro-1H-indazol-7-yl)(cyclobutyl)methanol]
0.0001 to 10 µM: all assays above

CC1(C(O)c2cc(Cl)cc3cn[nH]c23)CCC1 (stereo not drawn) [Compound P-0117, (5-chloro-1H-indazol-7-yl)(1-methylcyclobutyl)methanol]
0.0001 to 10 µM: all assays above

CC(C)(C1CCC1)C(O)c1cc(Cl)cc2cn[nH]c12 (stereo not drawn) [Compound P-0118, 1-(5-chloro-1H-indazol-7-yl)-2-cyclobutyl-2-methylpropan-1-ol]
0.0001 to 10 µM: all assays above

OC(c1cc(Cl)cc2cn[nH]c12)C1(C(F)(F)F)CC1 (stereo not drawn) [Compound P-0119, (5-chloro-1H-indazol-7-yl)(1-(trifluoromethyl)cyclopropyl)methanol]
0.0001 to 10 µM: all assays above

OC(c1cc(Cl)cc2cn[nH]c12)C1(C(F)(F)F)CCC1 (stereo not drawn) [Compound P-0120, (5-chloro-1H-indazol-7-yl)(1-(trifluoromethyl)cyclobutyl)methanol]
0.0001 to 10 µM: all assays above

CCCC1(C(O)c2cc(Cl)cc3cn[nH]c23)CCC1 (stereo not drawn) [Compound P-0121, (5-chloro-1H-indazol-7-yl)(1-propylcyclobutyl)methanol]
0.0001 to 10 µM: all assays above

CC1(C(O)c2c(F)c(Cl)c(F)c3cn[nH]c23)CCCCC1 (stereo not drawn) [Compound P-0123, (5-chloro-4,6-difluoro-1H-indazol-7-yl)(1-methylcyclohexyl)methanol]
0.0001 to 10 µM: all assays above

CNC(=O)N1CC2CCC(C1)C2CC(O)c1cc(Cl)cc2cn[nH]c12 (stereo not drawn) [Compound P-0127, 8-(2-(5-chloro-1H-indazol-7-yl)-2-hydroxyethyl)-N-methyl-3-azabicyclo[3.2.l]octane-3-carboxamide]
0.0001 to 10 µM: all assays above

CC(=O)N1CCC(C(F)(F)C(O)c2c(F)c(Cl)cc3cn[nH]c23)CC1 (stereo not drawn) [Compound P-0128, 1-(4-(2-(5-chloro-6-fluoro-1H-indazol-7-yl)-1,1-difluoro-2-hydroxyethyl)piperidin-1-yl)ethan-l-one]
0.0001 to 10 µM: all assays above

CC(=O)N1CCC(C(F)(F)C(O)c2c3c(cc4cn[nH]c24)CC3)CC1 (stereo not drawn) [Compound P-0129, 1-(4-(2-(5,6-dihydro-1H-cyclobuta[f]indazol-7-yl)-1,1-difluoro-2-hydroxyethyl)piperidin-1-yl)ethan-l-one]
0.0001 to 10 µM: all assays above

CC(=O)N1CCC(C2(C(O)c3cc(Cl)cc4cn[nH]c34)CC2)CC1 (stereo not drawn) [Compound P-0130, 1-(4-(1-((5-chloro-1H-indazol-7-yl)(hydroxy)methyl)cyclopropyl)piperidin-1-yl)ethan-l-one]
0.0001 to 10 µM: all assays above

CS(=O)(=O)N1C[C@H]2CC[C@@H](C1)[C@H]2C(F)(F)C(O)c1cc(Cl)cc2cn[nH]c12 (stereo partly drawn) [Compound P-0131, 1-(5-chloro-1H-indazol-7-yl)-2,2-difluoro-2-((1R,5S,8s)-3-(methylsulfonyl)-3-azabicyclo[3.2.l]octan-8-yl)ethan-l-ol]
0.0001 to 10 µM: all assays above

CS(=O)(=O)N1C[C@H]2CC[C@@H](C1)[C@@H]2C(F)(F)C(O)c1cc(Cl)cc2cn[nH]c12 (stereo partly drawn) [Compound P-0132, 1-(5-chloro-1H-indazol-7-yl)-2,2-difluoro-2-((1R,5S,8r)-3-(methylsulfonyl)-3-azabicyclo[3.2.l]octan-8-yl)ethan-l-ol]
0.0001 to 10 µM: all assays above

OC(c1cc(Cl)cc2cn[nH]c12)C12CCC(O)(CC1)CC2 (stereo not drawn) [Compound P-0133, 4-((5-chloro-1H-indazol-7-yl)(hydroxy)methyl)bicyclo[2.2.2]octan-1-ol]
0.0001 to 10 µM: all assays above

CNC(=O)N1CCC(C2(C(O)c3cc(Cl)cc4cn[nH]c34)CC2)CC1 (stereo not drawn) [Compound P-0134, 4-(1-((5-chloro-1H-indazol-7-yl)(hydroxy)methyl)cyclopropyl)-N-methylpiperidine-1-carboxamide]
0.0001 to 10 µM: all assays above

OC(c1cc(Cl)c(F)c2cn[nH]c12)C12CCC(CC1)CC2 (stereo not drawn) [Compound P-0135, bicyclo[2.2.2]octan-1-yl(5-chloro-4-fluoro-1H-indazol-7-yl)methanol]
0.0001 to 10 µM: all assays above

COC12CCC(C(O)c3cc(Cl)cc4cn[nH]c34)(CC1)CC2 (stereo not drawn) [Compound P-0136, (5-chloro-1H-indazol-7-yl)(4-methoxybicyclo[2.2.2]octan-1-yl)methanol]
0.0001 to 10 µM: all assays above

COC12CCC(C(O)c3c(F)c(Cl)cc4cn[nH]c34)(CC1)CC2 (stereo not drawn) [Compound P-0137, (5-chloro-6-fluoro-1H-indazol-7-yl)(4-methoxybicyclo[2.2.2]octan-1-yl)methanol]
0.0001 to 10 µM: all assays above

CC(=O)N1C[C@H]2CC[C@@H](C1)[C@H]2C(F)(F)C(O)c1c(F)c(Cl)cc2cn[nH]c12 (stereo partly drawn) [Compound P-0138, 1-((1R,5S,8s)-8-(2-(5-chloro-6-fluoro-1H-indazol-7-yl)-1,1-difluoro-2-hydroxyethyl)-3-azabicyclo[3.2.l]octan-3-yl)ethan-l-one]
0.0001 to 10 µM: all assays above

CC(=O)N1C[C@H]2CC[C@@H](C1)[C@@H]2C(F)(F)C(O)c1c(F)c(Cl)cc2cn[nH]c12 (stereo partly drawn) [Compound P-0139, 1-((1R,5S,8r)-8-(2-(5-chloro-6-fluoro-1H-indazol-7-yl)-1,1-difluoro-2-hydroxyethyl)-3-azabicyclo[3.2.l]octan-3-yl)ethan-l-one]
0.0001 to 10 µM: all assays above

COC(=O)N1CCC(C(F)(F)C(O)c2cc(Cl)cc3cn[nH]c23)CC1 (stereo not drawn) [Compound P-0141, methyl 4-(2-(5-chloro-1H-indazol-7-yl)-1,1-difluoro-2-hydroxyethyl)piperidine-1-carboxylate]
0.0001 to 10 µM: all assays above

CNC(=O)N1CCC(C(F)(F)C(O)c2cc(Cl)cc3cn[nH]c23)CC1 (stereo not drawn) [Compound P-0142, 4-(2-(5-chloro-1H-indazol-7-yl)-1,1-difluoro-hydroxyethyl)-N-methylpiperidine-1-carboxamide]
0.0001 to 10 µM: all assays above

O=C(C1CC1)N1CCC(C(F)(F)C(O)c2cc(Cl)cc3cn[nH]c23)CC1 (stereo not drawn) [Compound P-0143, (4-(2-(5-chloro-1H-indazol-7-yl)-1,1-difluoro-2-hydroxyethyl)piperidin-1-yl)(cyclopropyl)methanone]
0.0001 to 10 µM: all assays above
